Patent US9217012B2, “Inhibitors of protein tyrosine phosphatases” (Indiana University Research and Technology Corporation, priority 2009, dated 2015)
Read-outs that look alike come from different tables or passages of the source.

How the values were obtained:
TC-PTP = TC-PTP (Homo sapiens (Human), UniProt P17706); assay: PTP activity assay with pNPP substrate, TC-PTP; type: biochemical; conditions: for IC50: read-out: IC50 for TC-PTP
Procedure: (§1) The PTP activity was assayed using p-nitrophenyl phosphate (pNPP) as a substrate in DMG buffer at 25° C. […] The reaction rate was measure using a SPECTRAMAX microplate spectrophotometer (Molecular Devices). For the determination of Km, the initial velocity and substrate concentration data were fitted to Michaelis-Menten equation using SIGMAPLOT. […] The assays were performed in 96-well plates. […] The reaction rate was measured using a Spectra Max Plus 384 Microplate Spectrophotometer (Molecular Devices). […] The reactions were incubated at room temperature for 30 min and quenched with 5N NaOH. The absorbance at 405 nm was read on the SpectraMax Plus 384 Microplate Spectrophotometer. For the reversibility test, the enzyme was incubated with the inhibitor at room temperature for 30 min before pNPP was added to initiate the reaction. The reaction was then incubated at room temperature for 30 min and quenched and read. […] Data were fitted using SigmaPlot Enzyme Kinetics Module (Systat Software, Inc.)

PTP1B = PTP1B (Homo sapiens (Human), UniProt P18031); assay: PTP activity assay with pNPP substrate, PTP1B; type: biochemical
Procedure: as §1

[1] = 2 mM pNPP, DMG buffer, 25° C., Table 1

Sequence of TC-PTP (P17706 whole entry): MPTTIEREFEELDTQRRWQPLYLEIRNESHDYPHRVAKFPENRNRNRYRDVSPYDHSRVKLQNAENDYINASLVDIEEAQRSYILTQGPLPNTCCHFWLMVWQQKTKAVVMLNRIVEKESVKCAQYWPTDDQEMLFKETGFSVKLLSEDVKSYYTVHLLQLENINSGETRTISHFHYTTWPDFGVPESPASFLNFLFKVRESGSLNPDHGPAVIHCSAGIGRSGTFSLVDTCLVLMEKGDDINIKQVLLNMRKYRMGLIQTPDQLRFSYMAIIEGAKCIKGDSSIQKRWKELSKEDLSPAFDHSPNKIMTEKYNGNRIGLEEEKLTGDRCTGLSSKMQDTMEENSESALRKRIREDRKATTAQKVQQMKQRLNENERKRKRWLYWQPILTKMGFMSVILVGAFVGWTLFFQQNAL
Sequence of PTP1B (P18031 whole entry, species assumed): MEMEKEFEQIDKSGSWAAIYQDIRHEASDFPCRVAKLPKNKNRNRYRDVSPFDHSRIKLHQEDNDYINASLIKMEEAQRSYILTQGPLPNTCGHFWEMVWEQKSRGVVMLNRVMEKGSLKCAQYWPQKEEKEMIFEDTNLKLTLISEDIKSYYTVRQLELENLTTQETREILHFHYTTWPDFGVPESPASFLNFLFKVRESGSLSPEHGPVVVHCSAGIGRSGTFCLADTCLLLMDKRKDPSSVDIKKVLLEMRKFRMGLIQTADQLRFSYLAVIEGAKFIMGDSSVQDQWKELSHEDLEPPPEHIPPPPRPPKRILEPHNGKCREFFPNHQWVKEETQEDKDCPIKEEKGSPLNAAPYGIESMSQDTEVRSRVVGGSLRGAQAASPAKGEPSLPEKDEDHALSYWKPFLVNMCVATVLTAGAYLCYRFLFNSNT

CCc1ccc(C(=O)NCCCCC(NC(=O)C(Cc2ccc(C(F)(F)P(=O)(O)O)cc2)NC(=O)C(Cc2ccccc2)NC(C)=O)C(N)=O)cc1 (stereo not shown) [Compound 8]
IC50 (TC-PTP; [1]): 26 ± 2 nM | change in selectivity against PTP1B relative to 6 (TC-PTP; relative to compound 6): no appreciable change | fold increase in affinity for TC-PTP relative to 6 (TC-PTP; relative to compound 6): 6.2 fold | IC50 (PTP1B; [1]): 87 ± 2 nM

O=C(N[C@@H](Cc1ccc(C(F)(F)P(=O)(O)O)cc1)C(=O)O)OCC1c2ccccc2-c2ccccc21 [Fmoc-F2Pmp-OH, reference compound]
IC50 (TC-PTP; known competitive ligand): 20000 nM | IC50 (PTP1B; known competitive ligand): 20000 nM

CCc1ccc(C(=O)NCCCCC(NC(=O)C(Cc2ccc(C(F)(F)P(=O)(O)O)cc2)NC(C)=O)C(N)=O)cc1 (stereo not shown) [Compound 6]
IC50 (TC-PTP; [1]): 160 ± 20 nM | selectivity for TC-PTP over PTP1B (TC-PTP; TC-PTP versus PTP1B): 4.4 fold | fold lower TC-PTP IC50 than parent compound 4 (TC-PTP; relative to compound 4): 12.5 fold | IC50 (PTP1B; [1]): 700 ± 20 nM
